Reference: PubChem BioAssay (NCI)
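Method: 48-hour compound exposure of cells in 96-well plates, five concentrations, linear interpolation of endpoints. The concentration for 50% growth inhibition is given as GI50. The concentration for full growth arrest is given as TGI.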

What was measured:
Test in all cases: growth of human tumour cells (NCI), 48 h
786-0 renal = test system: 786-0 renal
A549 NSCLC = test system: A549 NSCLC
BT-549 breast = test system: BT-549 breast
HS 578T breast = test system: HS 578T breast
IGROV1 ovarian = test system: IGROV1 ovarian
KM12 colon = test system: KM12 colon
PC-3 prostate = test system: PC-3 prostate
SN12C renal = test system: SN12C renal
SR leukemia = test system: SR leukemia
U251 CNS = test system: U251 CNS
UO-31 renal = test system: UO-31 renal

| SMILES | TGI (786-0 renal) [µM] | TGI (A549 NSCLC) [µM] | TGI (BT-549 breast) [µM] | TGI (HS 578T breast) [µM] | TGI (IGROV1 ovarian) [µM] | TGI (KM12 colon) [µM] | TGI (PC-3 prostate) [µM] | TGI (SN12C renal) [µM] | TGI (SR leukemia) [µM] | TGI (U251 CNS) [µM] | TGI (UO-31 renal) [µM] | GI50 (SN12C renal) [nM] |
| --- | --- | --- | --- | --- | --- | --- | --- | --- | --- | --- | --- | --- |
| COc1cc(O)c(C(=O)/C=C/c2ccc(O)cc2)cc1Oc1ccc(C(=O)/C=C/c2ccc(O)cc2)c(O)c1 | 5.73 | 15.3 | 9.19 | 82.8 | 3.9 | 3.18 | 19.8 | 5.99 | > 100 | 4.97 | 7.06 | – |
| CC(C)(C)NNc1c([N+](=O)[O-])cnn(-c2ccccc2)c1=O | 13.4 | 32.4 | 2.7 | 26.1 | 38.6 | 24.5 | 3.23 | 6.35 | 4.67 | 8.05 | 12.8 | – |
| O=C1/C(=C/c2ccc(O)cc2)CCC1CNc1ccc(Cl)cc1 (stereo not given) | 4.58 | 21.6 | 26.5 | > 100 | 15.1 | 8.45 | 18.2 | 9.25 | 5.51 | 21.3 | 9.82 | – |
| CCOC(=O)Nc1ccc(S(=O)(=O)Nc2ccc(Br)cc2)cc1 | > 100 | > 100 | > 100 | > 100 | > 100 | > 100 | > 100 | > 100 | 50.4 | > 100 | > 100 | – |
| NC12c3c4cccc3Oc3cccc(c31)Oc1cccc(c12)O4 | > 50 | > 50 | > 50 | > 50 | > 50 | > 50 | > 50 | > 50 | > 50 | > 50 | > 50 | – |
| COc1ccc2c(c1)CCC(CN1CCN(CCOC(c3ccc(F)cc3)c3ccc(F)cc3)CC1)=C2 | 27.2 | > 100 | 35.6 | 50.7 | > 100 | > 100 | > 100 | 26.3 | 27.7 | 42.9 | – | – |
| COc1ccc2c(c1)CC[C@@H]1C2CC[C@]2(C)OC(=O)CCC12 (stereo not given in full) | 17.7 | > 100 | 23.6 | 60.6 | > 100 | > 100 | 61.1 | 29.1 | > 100 | 21 | 48.5 | – |
| c1ccc(/C(=N/Nc2cnccn2)c2ncccn2)cc1 | > 100 | > 100 | > 100 | > 100 | > 100 | > 100 | > 100 | > 100 | > 100 | > 100 | > 100 | – |
| CCc1nnc2sc(-c3ccc(-c4ccc(Cl)cc4Cl)o3)nn12 | > 100 | > 100 | > 100 | > 100 | > 100 | > 100 | > 100 | > 100 | > 100 | > 100 | > 100 | – |
| CCOc1ccc(N=NC2C(=O)N(C(=O)CC(=O)Nc3ccc(Cl)cc3)N=C2C)cc1 (stereo not given) | > 100 | > 100 | > 100 | > 100 | > 100 | > 100 | > 100 | > 100 | > 100 | > 100 | > 100 | – |
| Nc1nc(Cl)cc(NCC2(CO)CC(CCCCc3ccccc3)C2)n1 (stereo not given) | > 100 | > 100 | > 100 | > 100 | > 100 | > 100 | > 100 | > 100 | > 100 | > 100 | – | – |
| N=C(/C=C/c1ccc(-c2cn3cc(/C=C/C(=N)N4CCOCC4)ccc3n2)cc1)N1CCOCC1 | > 100 | > 100 | > 100 | > 100 | > 100 | > 100 | > 100 | > 100 | – | > 100 | > 100 | – |
| CC(C)=NN/C(=N\S(=O)(=O)c1cc(Cl)c(Oc2ccc([N+](=O)[O-])cc2Cl)c(Cl)c1)Nc1ccc(Cl)cc1 | > 100 | > 100 | > 100 | > 100 | > 100 | > 100 | > 100 | > 100 | – | > 100 | > 100 | – |
| Fc1ccc(C(=NCc2ccccc2)N2CCOCC2)cc1 | > 100 | – | > 100 | > 100 | > 100 | > 100 | > 100 | > 100 | > 100 | > 100 | > 100 | – |
| NS(=O)(=O)c1ccc(CNC(=S)NC(=O)Nc2ccc(Cl)c(Cl)c2)cc1 | 34.3 | 65.5 | 34.7 | 38.1 | 50.5 | 43.1 | 25.2 | 33.3 | – | 26.7 | 32.5 | – |
| CC(C)(C)[Si](C)(C)OCC1OC(n2ccc(=O)[nH]c2=O)C(O[Si](C)(C)C(C)(C)C)/C1=N/O (stereo not given) | 8.23 | 14 | > 40.5 | – | 15.6 | > 22.6 | 13.7 | 16.3 | 7.28 | 23.4 | 14.5 | – |
| CC1OC(OC2C(CO)OC(O[C@H]3CC[C@@]4(C)C(=CC[C@H]5[C@@H]6C[C@@H]7O[C@](O)(CC[C@@H](C)COC8OC(CO)C(O)C(O)C8O)[C@@H](C)[C@@H]7[C@@]6(C)CC[C@@H]54)C3)C(OC3OC(C)C(O)C(O)C3O)C2O)C(O)C(O)C1O (stereo not given in full) | 3.89 | 3.16 | 11.1 | > 100 | – | 6.85 | 5.51 | 6.95 | 11 | 3.62 | 8.39 | 2710 |
| C#CCNC(Cc1ccccc1)C(=O)O (stereo not given) | > 100 | > 100 | > 100 | > 100 | > 100 | > 100 | > 100 | – | > 100 | > 100 | > 100 | – |
